Results reported in patent publication US20120129817A1, “COMBINATION TREATMENT FOR DIABETES MELLITUS” (NYCOMED GMBH, priority 2006, published 2012).
Structures can show the parent of a compound that is named as a salt.

Columns and labels:
db/db-mice [1] = assay: HbA1c levels in db/db-mice after 4 weeks of once daily oral treatment (Micromat II Hemoglobin A1c Test); format: in vivo; conditions: female obese db/db-mice; Compound A 3 mg/kg orally, RIMONABANT Hydrochloride 10 mg/kg orally or combination of both, once daily for 4 weeks; vs vehicle; FIG. 1
Protocol: (§1) Aim of the study was to investigate the influence of a combination of RIMONABANT Hydrochloride and Compound A on HbA1c and glucose tolerance.
(§2) Female obese db/db-mice (BKS.Cg/BomTac-m+/+Lepr^db), supplied by Taconic Europe (Denmark) were used at the age of 10-11 weeks. Animals were kept under controlled conditions (22° C., 12 h light/12 h dark cycle) and received standard laboratory chow and water ad libitum. For each group a number of 15 animals were used.
(§3) Animals were treated with Compound A [3 mg/kg orally, suspended in methocel (hypromellose, 4% aequous solution)], RIMONABANT Hydrochloride [10 mg/kg orally, suspended in methocel (hypromellose, 4% aequous solution), Sequoia Research Products, Pangbourne, UK] or a combination of both once daily for 4 weeks. Vehicle treated animals served as control. HbA1c levels were analyzed using the Micromat II Hemoglobin A1c Test (Bio-Rad Laboratories GmbH, 80939 München, Germany). An intraperitoneal glucose tolerance test was performed in 24 h fasted animals. A glucose bolus (1 g/kg body weight) was administered intraperitoneally. Blood glucose was monitored for the following time points: t=−120 min, 0 min (before glucose administration), 30 min, 60 min, 90 min, 120 min (after glucose administration). Blood was taken by tail-tip-bleeding (5 μl) and was determined from hemolysate using an analyzing machine (Biosen S_line, EKF Diagnostic, Germany). […]

db/db-mice [2] = assay: Intraperitoneal glucose tolerance test in 24 h fasted db/db-mice after 4 weeks of treatment; format: in vivo; conditions: female obese db/db-mice, glucose bolus 1 g/kg i.p., Compound A 3 mg/kg orally, RIMONABANT Hydrochloride 10 mg/kg orally or combination of both, once daily for 4 weeks, FIG. 2
Protocol: as §1, §2, §3

SMILES	effect on HbA1c (db/db-mice [1])	effect on glucose tolerance (db/db-mice [2])
CCOc1cc2c(cc1OC)C(c1ccc(OC)nc1OC)=N[C@@H]1CC[C@@H](O)C[C@H]21 [Compound A, (2R,4aR,10bR)-6-(2,6-Dimethoxy-pyridin-3-yl)-9-ethoxy-8-methoxy-1,2,3,4,4a,10b-hexahydrophenanthridin-2-ol]	no effect	no effect
Cc1c(C(=O)NN2CCCCC2)nn(-c2ccc(Cl)cc2Cl)c1-c1ccc(Cl)cc1 [RIMONABANT Hydrochloride, 5-(4-chlorophenyl)-1-(2,4-dichlorophenyl)-4-methyl-N-piperidin-1-yl-1H-pyrazole-3-carboxamide]	no effect	no effect
